The values that follow come from patent US20240368120A1 (Terns Pharmaceuticals, Inc., priority 2023, published 2024).

The target of this assay is T1, human GLP-1R receptor (Homo sapiens, UniProt P43220).
T1 construct: expressed in transfected cells
Nature of the assay: GLP-1R low expression cell assay (cAMP TR-FRET, CHO-K1_hGLP-1Rlow_clone10 cells). Type of assay: cell-based. The settings on record: for EC50: cAMP TR-FRET, 30 min at 25° C. The procedure, abridged:
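CHO-K1 cells stably expressing low surface human GLP-1R (clone10), 1,000 cells/well, exposed to 10-point 3-fold compound dilutions for 30 min at 25 °C. cAMP measured by TR-FRET (Eu-cAMP tracer/ULight-anti-cAMP, 15 min). EC50 from Hill fit of duplicate percent activation relative to a parallel GLP-1 control agonist.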

[1] abbreviates: maximum activation relative to control GLP-1 peptide agonist.

T1 sequence (P43220 24-463): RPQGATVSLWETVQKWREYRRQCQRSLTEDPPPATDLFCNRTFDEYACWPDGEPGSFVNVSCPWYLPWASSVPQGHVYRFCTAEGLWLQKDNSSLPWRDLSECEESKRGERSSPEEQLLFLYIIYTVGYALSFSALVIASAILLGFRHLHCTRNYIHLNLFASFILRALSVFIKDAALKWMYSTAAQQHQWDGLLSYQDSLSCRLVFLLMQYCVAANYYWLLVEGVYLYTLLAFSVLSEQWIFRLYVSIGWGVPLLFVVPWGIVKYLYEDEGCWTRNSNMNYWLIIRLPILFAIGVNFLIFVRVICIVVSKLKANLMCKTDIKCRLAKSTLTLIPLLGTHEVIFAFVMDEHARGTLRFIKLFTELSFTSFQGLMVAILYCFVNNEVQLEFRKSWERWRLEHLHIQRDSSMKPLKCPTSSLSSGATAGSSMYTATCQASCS

For `CCOc1cc(C(=O)O)cc2c1nc(CN1CCC(c3cccc4c3OC[C@@H](c3ccc(C#N)cc3F)O4)CC1)n2C` [Compound 276, (R)-2-((4-(2-(4-Cyano-2-fluorophenyl)-2,3-dihydrobenzo[b][1,4]dioxin-5-yl)piperidin-1-yl)methyl)-4-ethoxy-1-methyl-1H-benzo[d]imidazole-6-carboxylic acid], the EC50 lay within 10 to 100 nM. Moreover, under setting [1], the Emax is greater than 85%.

The compound `Cn1c(CN2CCC(c3c(F)cccc3OCc3ccc(C#N)cc3F)CC2)nc2c(OC(F)F)cc(C(=O)O)cc21` [Compound 146, 2-((4-(2-((4-Cyano-2-fluorobenzyl)oxy)-6-fluorophenyl)piperidin-1-yl)methyl)-4-(difluoromethoxy)-1-methyl-1H-benzo[d]imidazole-6-carboxylic acid] gave an EC50 greater than 1000 nM. Also, the Emax under setting [1] was in the range of 50 to 85%.

The compound `COc1cc(C(=O)O)nc2c1nc(CN1CCC(c3cccc(OCc4ccc(Cl)cc4F)n3)CC1)n2C` [Compound 324, 2-((4-(6-((4-Chloro-2-fluorobenzyl)oxy)pyridin-2-yl)piperidin-1-yl)methyl)-7-methoxy-3-methyl-3H-imidazo[4,5-b]pyridine-5-carboxylic acid] displayed an EC50 of 10 to 100 nM. Further, the Emax under setting [1] was greater than 85%.

The compound `COc1c(F)c(C(=O)O)cc2nc(CN3CCC(c4cccc(OCc5ccc(Cl)cc5F)n4)CC3)n(C)c12` [Compound 338, 2-((4-(6-((4-Chloro-2-fluorobenzyl)oxy)pyridin-2-yl)piperidin-1-yl)methyl)-6-fluoro-7-methoxy-1-methyl-1H-benzo[d]imidazole-5-carboxylic acid] returned an EC50 greater than 1000 nM. Moreover, the Emax under setting [1] was 50 to 85%.

As for `COc1cc(C(=O)O)cc2c1nc(N(C)[C@H]1CC[C@@H](c3cccc4c3O[C@@](C)(c3ccc(Cl)cn3)O4)CC1)n2C[C@@H]1CCO1` [Compound 79, 2-(((1R,4R)-4-((S)-2-(5-chloropyridin-2-yl)-2-methylbenzo[d][1,3]dioxol-4-yl)cyclohexyl)(methyl)amino)-4-methoxy-1-(((S)-oxetan-2-yl)methyl)-1H-benzo[d]imidazole-6-carboxylic acid], the EC50 fell in the range of 100 to 1000 nM. Besides, under setting [1], the Emax is greater than 85%.

For the compound `[2H]C([2H])(Oc1cccc(C2CCN(Cc3nc4c(OC(F)F)cc(C(=O)O)cc4n3C)CC2)n1)c1ccc(Cl)cc1F` [Compound 195, 2-((4-(6-((4-Chloro-2-fluorophenyl)methoxy-d2)pyridin-2-yl)piperidin-1-yl)methyl)-4-(difluoromethoxy)-1-methyl-1H-benzo[d]imidazole-6-carboxylic acid], the EC50 lay in the range of 10 to 100 nM. This compound also had an Emax under setting [1] greater than 85%.

`COc1c(OCc2ccc(C#N)cc2F)cccc1C1CCN(Cc2nc3c(OC(F)F)cc(C(=O)O)cc3n2C)CC1` [Compound 144, 2-((4-(3-((4-Cyano-2-fluorobenzyl)oxy)-2-methoxyphenyl)piperidin-1-yl)methyl)-4-(difluoromethoxy)-1-methyl-1H-benzo[d]imidazole-6-carboxylic acid]: the EC50 was greater than 1000 nM. Further, the Emax under setting [1] was less than 25%.

As to `COc1cc(C(=O)O)cc2c1nc([C@@H](C)N1CCC(c3cccc4c3O[C@@](C)(c3ccc(Cl)cn3)O4)CC1)n2C` [Compound 97, 2-((R)-1-(4-((S)-2-(5-chloropyridin-2-yl)-2-methylbenzo[d][1,3]dioxol-4-yl)piperidin-1-yl)ethyl)-4-methoxy-1-methyl-1H-benzo[d]imidazole-6-carboxylic acid], the EC50 was greater than 1000 nM. For the same compound, the Emax under setting [1] is greater than 85%.

In turn, `COc1cc(C(=O)O)cc2c1nc(Cc1ccc(-c3cccc(OCc4ccc(C#N)cc4F)n3)cc1F)n2C` [Compound 342, 2-(4-(6-((4-cyano-2-fluorobenzyl)oxy)pyridin-2-yl)-2-fluorobenzyl)-4-methoxy-1-methyl-1H-benzo[d]imidazole-6-carboxylic acid] came in with an EC50 of less than 10 nM. Under setting [1], the maximum response (Emax) is greater than 85%.

The compound `Cn1c(CN2CCC(c3cccc(OCc4ccc(Cl)cc4F)n3)CC2)nc2c(OC(F)F)cc(-c3nnc(C(F)(F)F)[nH]3)cc21` [Compound 232, 2-((4-(6-((4-Chloro-2-fluorobenzyl)oxy)pyridin-2-yl)piperidin-1-yl)methyl)-4-(difluoromethoxy)-1-methyl-6-(5-(trifluoromethyl)-4H-1,2,4-triazol-3-yl)-1H-benzo[d]imidazole] displayed a 50% effective concentration (EC50) greater than 1000 nM. The compound further registered an Emax under setting [1] of 25 to 50%.

For the compound `COc1cc(C(=O)O)cc2c1nc(CN1CCC(c3cccc(OCc4cc(F)c(Cl)cc4F)n3)CC1)n2C` [Compound 272, 2-((4-(6-((4-Chloro-2,5-difluorobenzyl)oxy)pyridin-2-yl)piperidin-1-yl)methyl)-4-methoxy-1-methyl-1H-benzo[d]imidazole-6-carboxylic acid], the EC50 was less than 10 nM. The compound further displayed an Emax under setting [1] greater than 85%.

Compound `Cn1c(CN2CCC(c3cccc(OCc4ccc(C#N)cc4F)n3)CC2)nc2c(O)cc(C(=O)O)cc21` [Compound 114, 2-((4-(6-((4-Cyano-2-fluorobenzyl)oxy)pyridin-2-yl)piperidin-1-yl)methyl)-4-hydroxy-1-methyl-1H-benzo[d]imidazole-6-carboxylic acid] came in with an EC50 of less than 10 nM. For the same compound, the Emax under setting [1] was greater than 85%.

With `Cn1c(CN2CCC(c3ncc(F)c(OCc4ccc(Cl)cc4F)n3)CC2)nc2c(OC(F)F)cc(C(=O)O)cc21` [Compound 356, 2-((4-(4-((4-Chloro-2-fluorobenzyl)oxy)-5-fluoropyrimidin-2-yl)piperidin-1-yl)methyl)-4-(difluoromethoxy)-1-methyl-1H-benzo[d]imidazole-6-carboxylic acid], the EC50 was in the range of 10 to 100 nM. The compound also registered an Emax under setting [1] greater than 85%.

With `CO[C@H]1C[C@H](Oc2cc(C(=O)O)cc3c2nc(CN2CCC(c4cccc(OCc5ccc(C#N)cc5F)n4)CC2)n3C)C1` [Compound 317, 2-((4-(6-((4-Cyano-2-fluorobenzyl)oxy)pyridin-2-yl)piperidin-1-yl)methyl)-4-((1r,3r)-3-methoxycyclobutoxy)-1-methyl-1H-benzo[d]imidazole-6-carboxylic acid], the EC50 was in the range of 100 to 1000 nM. Under setting [1], this compound returned an Emax greater than 85%.

`Cn1c(CN2CCC(Oc3cccc(COc4ccc(Cl)cc4F)n3)CC2)nc2c(OC(F)F)cc(C(=O)O)cc21` [Compound 196, 2-((4-((6-((4-Chloro-2-fluorophenoxy)methyl)pyridin-2-yl)oxy)piperidin-1-yl)methyl)-4-(difluoromethoxy)-1-methyl-1H-benzo[d]imidazole-6-carboxylic acid] registered a half-maximal effective concentration (EC50) of 10 to 100 nM. Also, the Emax under setting [1] was greater than 85%.

Consider `Cn1c(CN2CCC(c3cccc(OCc4ccc(Cl)cc4F)n3)CC2)nc2c(OC(F)CF)cc(C(=O)O)cc21` (single isomer, unassigned) [Compound 330], for which the EC50 was 10 to 100 nM. Besides, under setting [1], the “GLP-1R Low Expression Cell Assay Emax (%)” value is given as “++++ (Emax is >85%)”.

Regarding `CCOc1cc(C(=O)NS(C)(=O)=O)cc2c1nc(CN1CCC(c3cccc(OCc4ccc(C#N)cc4F)n3)CC1)n2C` [Compound 261, 2-((4-(6-((4-Cyano-2-fluorobenzyl)oxy)pyridin-2-yl)piperidin-1-yl)methyl)-4-ethoxy-1-methyl-N-(methylsulfonyl)-1H-benzo[d]imidazole-6-carboxamide], the EC50 lay in the range of 10 to 100 nM. Besides, under setting [1], the maximal effect (Emax) is greater than 85%.

The compound `Cn1c(CN2CCC(c3cccc(OCc4ccc(Cl)cn4)n3)CC2)nc2c(OC(F)F)cc(C(=O)O)cc21` [Compound 247, 2-((4-(6-((5-Chloropyridin-2-yl)methoxy)pyridin-2-yl)piperidin-1-yl)methyl)-4-(difluoromethoxy)-1-methyl-1H-benzo[d]imidazole-6-carboxylic acid] had an EC50 of 100 to 1000 nM. This compound gave an Emax under setting [1] greater than 85%.

As for `Cn1c(CN2CCC(c3cccc(OCc4ccc(Cl)cc4F)n3)CC2)nc2ccc(C(=O)O)c(O)c21` [Compound 341, 2-((4-(6-((4-Chloro-2-fluorobenzyl)oxy)pyridin-2-yl)piperidin-1-yl)methyl)-7-hydroxy-1-methyl-1H-benzo[d]imidazole-6-carboxylic acid], the EC50 is 100 to 1000 nM. The Emax under setting [1] was greater than 85%.

The compound `COc1cc(C(=O)O)cc2nc(CN3CCC(c4cccc(OCc5ccc(Cl)cc5F)n4)CC3)n(CF)c12` [Compound 192, 2-((4-(6-((4-Chloro-2-fluorobenzyl)oxy)pyridin-2-yl)piperidin-1-yl)methyl)-1-(fluoromethyl)-7-methoxy-1H-benzo[d]imidazole-5-carboxylic acid] came in with an EC50 greater than 1000 nM. This compound also came in with an Emax under setting [1] of 50 to 85%.

In turn, `Cn1c(N(C)[C@H]2CC[C@@H](c3cccc(OCc4ccc(C#N)cc4F)n3)CC2)nc2c(OC(F)F)cc(C(=O)O)cc21` [Compound 142, 2-(((1s,4s)-4-(6-((4-Cyano-2-fluorobenzyl)oxy)pyridin-2-yl)cyclohexyl)(methyl)amino)-4-(difluoromethoxy)-1-methyl-1H-benzo[d]imidazole-6-carboxylic acid] returned an EC50 greater than 1000 nM. Moreover, the Emax under setting [1] is greater than 85%.

As to `Cn1c(CN2CCC(c3cccc(OCc4ccc(Cl)cc4F)c3)CC2)nc2c(OC(F)F)cc(C(=O)O)cc21` [Compound 148, 2-((4-(3-((4-Chloro-2-fluorobenzyl)oxy)phenyl)piperidin-1-yl)methyl)-4-(difluoromethoxy)-1-methyl-1H-benzo[d]imidazole-6-carboxylic acid], the EC50 was in the range of 100 to 1000 nM. Besides, the Emax under setting [1] is greater than 85%.

As for `COc1c(F)c(C(=O)O)cc2nc(CN3CCC(c4cccc(OCc5ccc(C#N)cc5F)n4)CC3)n(C)c12` [Compound 336, 2-((4-(6-((4-Cyano-2-fluorobenzyl)oxy)pyridin-2-yl)piperidin-1-yl)methyl)-6-fluoro-7-methoxy-1-methyl-1H-benzo[d]imidazole-5-carboxylic acid], the EC50 is greater than 1000 nM. The compound further came in with an Emax under setting [1] of less than 25%.
